As a reminder, the IC50 is the concentration that inhibits the measured activity by half. A lower IC50 goes with higher potency.

One assay concerns the target α-glucosidase (Saccharomyces cerevisiae, UniProt P53341). Kind of assay: α-Glucosidase inhibition assay (PNPG substrate). The class given is biochemical. As to conditions: pH 6.8, 37 °C. The procedure:
The in vitro α-glucosidase inhibitory activities of all synthesised compounds were evaluated using p-nitrophenyl-α-D-glucopyranoside (PNPG) as substrate.
The α-glucosidase inhibitory activity of compounds 5a ∼ c, 6a ∼ c, and 7a ∼ c were performed according to our previous report.[30]^,[31] The 10 μL of α-glucosidase enzyme (final concentration 0.1 U/mL) and 10 μL of test compounds (dissolved in DMSO) were added into 130 μL of phosphate buffer (0.1 M, pH 6.8), followed 10 min incubation at 37 °C. Then 50 μL of PNPG (final concentration 0.25 mM) was added, and mixture was continuely incubated for 20 min at 37 °C. The absorbance at 405 nm was measured using Multimodel Reader. The percentage of enzyme inhibition was calculated: % Inhibition = [(A1– A0)/A0] × 100%, where A1 was the absorbance with the test compound, and A0 was the absorbance without the test compound. The IC50 value of compound was obtained from the plot of inhibition percentage vs test compound at different concentrations. […] The experiment was performed in duplicate.

The next assay has as its target T1, α-amylase (Sus scrofa, UniProt P00690).
T1 sequence (P00690 16-511): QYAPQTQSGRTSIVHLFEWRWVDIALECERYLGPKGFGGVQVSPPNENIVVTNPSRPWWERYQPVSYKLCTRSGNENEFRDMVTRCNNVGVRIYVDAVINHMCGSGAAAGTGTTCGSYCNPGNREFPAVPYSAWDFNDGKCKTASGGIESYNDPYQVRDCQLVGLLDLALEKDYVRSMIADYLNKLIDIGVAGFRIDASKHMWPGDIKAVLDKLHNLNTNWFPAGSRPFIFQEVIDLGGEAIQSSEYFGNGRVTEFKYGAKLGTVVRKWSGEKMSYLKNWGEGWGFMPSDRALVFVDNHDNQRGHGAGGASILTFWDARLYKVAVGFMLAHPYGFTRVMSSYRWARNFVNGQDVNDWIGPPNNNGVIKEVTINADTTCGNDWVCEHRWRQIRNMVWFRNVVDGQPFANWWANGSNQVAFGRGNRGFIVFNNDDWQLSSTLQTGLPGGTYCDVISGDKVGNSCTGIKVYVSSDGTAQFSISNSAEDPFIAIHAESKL
Kind of assay: α-Amylase inhibition assay (starch/DNS). The class given is biochemical. As to conditions: starch substrate, pH 6.9, 37 °C. The procedure: The α-amylase inhibitory activity of all tested compounds was performed according to previous report.[33]^,[34] A 10 μL of α-amylase enzyme solution (final concentration 0.25 U/mL), 10 μL of test compounds (dissolved in DMSO), and 80 μL of phosphate buffer (20 mM, pH 6.9) were mixed and incubated for 10 min at 37 °C. Next, 100 μL starch solution (final concentration 0.5%) was added into the mixture followed by an incubation of 10 min. After 100 μL DNS (containing 1 M Potassium sodium tartrate and 48 mM 3,5-Dinitrosalicylic acid) was added, the mixture was kept incubated in boiling water for 15 min. Finally, the absorbance was measured at 540 nm after dilution of solution by adding 900 μL distilled water. The percentage of enzyme inhibition was calculated: % Inhibition = [(A1– A0)/A0] × 100%, where A1 was the absorbance with the test compound, and A0 was the absorbance without the test compound. The IC50 value of compound was obtained from the plot of inhibition percentage vs test compound at different concentrations. […] The experiment was performed in duplicate.

α-glucosidase, sequence (P53341 whole entry): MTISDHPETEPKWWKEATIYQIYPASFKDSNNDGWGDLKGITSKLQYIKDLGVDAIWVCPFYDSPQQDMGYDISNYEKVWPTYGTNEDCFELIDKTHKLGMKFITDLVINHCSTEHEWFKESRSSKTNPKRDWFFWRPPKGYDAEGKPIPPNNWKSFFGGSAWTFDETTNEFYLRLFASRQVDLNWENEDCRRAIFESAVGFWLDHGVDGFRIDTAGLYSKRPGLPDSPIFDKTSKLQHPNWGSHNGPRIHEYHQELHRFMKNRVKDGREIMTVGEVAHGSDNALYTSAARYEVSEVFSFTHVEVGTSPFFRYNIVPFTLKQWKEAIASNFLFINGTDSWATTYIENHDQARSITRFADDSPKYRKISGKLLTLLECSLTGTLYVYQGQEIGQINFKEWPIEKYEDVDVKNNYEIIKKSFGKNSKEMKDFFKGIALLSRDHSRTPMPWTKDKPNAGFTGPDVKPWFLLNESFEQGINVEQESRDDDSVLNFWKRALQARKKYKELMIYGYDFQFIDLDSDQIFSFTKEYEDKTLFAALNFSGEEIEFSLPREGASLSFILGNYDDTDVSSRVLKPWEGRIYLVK

For “2,2-Bis(1-methyl-1H-pyrrol-3-yl)acetonitrile [Compound 6a]”, the figures for the IC50 at α-glucosidase and against α-amylase were 220 ± 5.02 µM and 464 ± 9.47 µM, respectively.
On the same counts, the results for “2,2-Di(1H-pyrrol-3-yl)acetonitrile [Compound 6c]” are 130 ± 3.81 µM and 419 ± 11.3 µM.

These data come from publication PMC8409970, “In vitro and in silico studies of bis (indol-3-yl) methane derivatives as potential α-glucosidase and α-amylase inhibitors” (Journal of Enzyme Inhibition and Medicinal Chemistry, 2021).
